Experimental data taken from ChEMBL document CHEMBL1201862, “PubChem BioAssay data set” (2004).
The source made the active and inactive calls.

Columns and labels:
[1] = molecular target: T1, Mannose-6-phosphate isomerase (Homo sapiens, UniProt P34949); test: PMI enzyme inhibitors, confirmation, biochemical, fluorescence intensity (AID 1535)
T1 sequence (P34949 whole entry): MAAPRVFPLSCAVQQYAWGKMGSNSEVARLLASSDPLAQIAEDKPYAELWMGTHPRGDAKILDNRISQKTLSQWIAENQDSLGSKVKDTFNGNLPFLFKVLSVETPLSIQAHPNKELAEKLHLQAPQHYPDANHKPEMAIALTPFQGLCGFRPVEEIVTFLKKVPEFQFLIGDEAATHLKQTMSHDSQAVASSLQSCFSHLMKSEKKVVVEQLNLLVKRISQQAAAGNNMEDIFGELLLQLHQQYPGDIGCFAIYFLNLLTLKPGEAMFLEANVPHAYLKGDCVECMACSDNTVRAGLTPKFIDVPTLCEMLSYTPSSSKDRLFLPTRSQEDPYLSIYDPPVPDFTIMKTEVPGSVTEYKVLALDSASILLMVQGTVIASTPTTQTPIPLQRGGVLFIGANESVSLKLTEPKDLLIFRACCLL

[2] = molecular target: Phosphomannomutase 2 (Homo sapiens, UniProt O15305); test: Counter screen SAR assay for PMM2 inhibitors via a fluorescence intensity assay. [Related pubchem assays (depositor defined):AID1545, AID1574]
Chain of Phosphomannomutase 2 (O15305 whole entry): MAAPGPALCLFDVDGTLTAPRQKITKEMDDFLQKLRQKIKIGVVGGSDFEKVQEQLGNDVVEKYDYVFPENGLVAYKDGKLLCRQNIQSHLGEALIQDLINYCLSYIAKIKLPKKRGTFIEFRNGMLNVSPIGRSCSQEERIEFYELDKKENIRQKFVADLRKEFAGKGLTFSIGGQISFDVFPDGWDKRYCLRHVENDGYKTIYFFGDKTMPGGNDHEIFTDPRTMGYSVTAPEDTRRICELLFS

[3] = molecular target: T2, Delta-type opioid receptor (Homo sapiens, UniProt P41143); test: HTS Image-Based Screen for Antagonists of the DOR Receptor. [Related pubchem assays (depositor defined):AID1777, AID1785, AID1786, AID2133]; format: functional
T2 sequence (P41143 whole entry): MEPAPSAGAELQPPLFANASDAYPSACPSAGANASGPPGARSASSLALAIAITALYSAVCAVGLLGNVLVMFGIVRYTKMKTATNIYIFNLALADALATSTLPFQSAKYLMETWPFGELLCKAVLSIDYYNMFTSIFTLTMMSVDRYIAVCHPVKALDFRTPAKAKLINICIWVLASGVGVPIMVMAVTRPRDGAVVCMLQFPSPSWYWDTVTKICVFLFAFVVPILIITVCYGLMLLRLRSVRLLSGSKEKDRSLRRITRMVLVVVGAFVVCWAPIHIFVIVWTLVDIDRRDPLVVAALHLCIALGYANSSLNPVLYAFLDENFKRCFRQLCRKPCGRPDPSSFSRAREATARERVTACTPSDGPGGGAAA

[4] = inhibitors of firefly luciferase expression or activity, dose response, H4 neuroglioma cells, luminescence (AID 1990); format: functional, cell-based
[5] = molecular target: Mu-type opioid receptor (Homo sapiens, UniProt P35372); test: HTS Image-Based Screen for Agonists of the MOR Receptor. [Related pubchem assays (depositor defined):AID1777, AID1785, AID1786, AID2133]; format: functional;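 also: imaging of beta-arrestin GFP recruitment into spots after receptor activation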
Chain of Mu-type opioid receptor (P35372 whole entry): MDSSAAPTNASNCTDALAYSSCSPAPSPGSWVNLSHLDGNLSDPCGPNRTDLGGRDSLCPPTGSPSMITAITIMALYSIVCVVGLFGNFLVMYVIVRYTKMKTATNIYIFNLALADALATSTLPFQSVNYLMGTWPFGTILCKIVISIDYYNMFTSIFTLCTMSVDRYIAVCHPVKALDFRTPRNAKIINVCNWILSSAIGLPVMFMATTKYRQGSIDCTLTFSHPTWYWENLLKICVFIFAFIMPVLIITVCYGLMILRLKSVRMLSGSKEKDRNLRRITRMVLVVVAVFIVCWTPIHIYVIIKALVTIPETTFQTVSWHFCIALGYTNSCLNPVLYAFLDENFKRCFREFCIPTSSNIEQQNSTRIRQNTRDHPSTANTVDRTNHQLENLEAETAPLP

[6] = molecular target: T2, Delta-type opioid receptor; test: HTS Image-Based Screen for Agonists of the DOR Receptor. [Related pubchem assays (depositor defined):AID1777, AID1786, AID2133]; format: functional
[7] = system: BJ; test: cytotoxicity toward BJ-TERT fibroblasts, dose response, cell-based, RAS-independent, luminescence (AID 1933); format: functional; conditions: Homo sapiens
[8] = Luminescence Cell-Based Dose Response HTS to Identify Inhibitors of 5'UTR Stem-Loop Driven Prion Protein mRNA Translation in H4 Neuroglioblastoma Cells. [Related pubchem assays: 1827 (Project Summary), 1813 (Primary HTS)]; format: functional
[9] = inhibitors of SNCA 5'UTR-driven reporter translation, confirmation, H4 neuroglioma cells, luminescence (AID 1988); format: functional, cell-based
[10] = system: BJ; test: cells; format: functional, cell-based; conditions: Homo sapiens
[11] = molecular target: T3, Kappa-type opioid receptor (Homo sapiens, UniProt P41145); format: functional
T3 sequence (P41145 whole entry): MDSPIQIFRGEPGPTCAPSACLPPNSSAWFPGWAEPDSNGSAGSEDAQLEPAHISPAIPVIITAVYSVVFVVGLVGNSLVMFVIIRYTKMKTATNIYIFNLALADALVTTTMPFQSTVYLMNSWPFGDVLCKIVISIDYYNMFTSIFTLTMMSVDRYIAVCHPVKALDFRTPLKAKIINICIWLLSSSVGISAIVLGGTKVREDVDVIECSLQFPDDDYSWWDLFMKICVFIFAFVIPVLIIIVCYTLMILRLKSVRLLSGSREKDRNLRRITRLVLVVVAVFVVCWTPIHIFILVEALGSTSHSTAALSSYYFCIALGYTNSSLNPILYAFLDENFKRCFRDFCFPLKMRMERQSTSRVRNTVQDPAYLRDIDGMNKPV

[12] = molecular target: T3, Kappa-type opioid receptor; format: functional; remark: listed apart in the source
[13] = system: BJ; test: cytotoxicity toward BJ-TERT-LT-ST fibroblasts, dose response, cell-based, RAS-independent, luminescence (AID 1935); format: functional; conditions: Homo sapiens;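 also: BJ fibroblasts immortalized with TERT plus LT and ST oncogenes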
[14] = cytotoxicity toward DRD oncogenic fibroblasts, dose response, cell-based, non-viral oncogenic, luminescence (AID 1934); format: functional; conditions: Homo sapiens
[15] = THP-1 cell cytotoxicity, dose response, cytotoxicity control for non-replicating M. tuberculosis project (AID 489025); format: functional
[16] = HepG2 cell cytotoxicity, dose response, cytotoxicity control for non-replicating M. tuberculosis project (AID 489018); format: functional; conditions: Mycobacterium tuberculosis
[17] = Vero E6 cell cytotoxicity, dose response, cytotoxicity control for non-replicating M. tuberculosis project, secondary assay (AID 492998); format: functional, VeroE6; conditions: Vero C1008
[18] = cells; format: functional
[19] = system: INS1; test: beta cell apoptosis inhibitors, cytokine rescue, dose response, luminescence, retest (AID 449756); format: functional, cell-based; conditions: Rattus norvegicus;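 also: cell death triggered by IL-1 beta plus TNF-alpha plus IFN-gamma mixture; protective hits raise ATP signal compared with cytokine alone wells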
[20] = molecular target: 26S proteasome non-ATPase regulatory subunit 14 (Homo sapiens, UniProt O00487); test: inhibition of proteasome subunit RPN11 – biochemical, fluorescence polarization, uHTS hits, confirmation (AID 602368); format: functional
[21] = molecular target: 72 kDa type IV collagenase (Homo sapiens, UniProt P08253); test: Dose Response validation of uHTS RPN11 inhibitor hits using a MMP-2 Fluorescence assay.; format: functional
Chain of 72 kDa type IV collagenase (P08253 whole entry): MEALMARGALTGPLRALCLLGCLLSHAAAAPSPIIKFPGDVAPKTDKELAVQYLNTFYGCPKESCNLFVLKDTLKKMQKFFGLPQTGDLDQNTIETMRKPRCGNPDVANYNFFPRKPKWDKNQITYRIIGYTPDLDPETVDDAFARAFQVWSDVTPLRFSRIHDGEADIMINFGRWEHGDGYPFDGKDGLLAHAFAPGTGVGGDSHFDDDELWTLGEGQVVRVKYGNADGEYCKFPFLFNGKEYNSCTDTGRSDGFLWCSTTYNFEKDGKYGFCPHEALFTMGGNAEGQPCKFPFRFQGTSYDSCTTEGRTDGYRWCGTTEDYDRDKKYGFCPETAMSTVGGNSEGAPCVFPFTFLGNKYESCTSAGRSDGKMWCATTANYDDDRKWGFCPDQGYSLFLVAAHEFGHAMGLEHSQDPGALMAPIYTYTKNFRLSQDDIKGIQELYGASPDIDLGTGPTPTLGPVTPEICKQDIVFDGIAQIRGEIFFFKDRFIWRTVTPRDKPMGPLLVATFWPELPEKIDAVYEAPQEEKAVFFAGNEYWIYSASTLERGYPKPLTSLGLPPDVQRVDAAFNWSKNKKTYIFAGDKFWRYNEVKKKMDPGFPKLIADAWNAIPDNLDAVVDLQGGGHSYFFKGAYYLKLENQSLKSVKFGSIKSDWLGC

[22] = molecular target: Prothrombin (Bos taurus, UniProt P00735); test: thrombin inhibition, dose response, biochemical, fluorescence polarization, uHTS hits (AID 602369); format: functional
[23] = MDA-MB-231 cell growth inhibition, dose response, cytotoxicity control for RAD54 inhibitor project, CellTiter-Glo luminescence, cherry-pick (AID 651692); format: functional, cell-based
[24] = molecular target: DNA repair and recombination protein RAD54-like (Homo sapiens, UniProt Q92698); test: inhibitors of human RAD54 branch migration, confirmation, biochemical, fluorescence, cherry-picked samples, dose series (AID 651657); format: functional
Chain of DNA repair and recombination protein RAD54-like (Q92698 whole entry): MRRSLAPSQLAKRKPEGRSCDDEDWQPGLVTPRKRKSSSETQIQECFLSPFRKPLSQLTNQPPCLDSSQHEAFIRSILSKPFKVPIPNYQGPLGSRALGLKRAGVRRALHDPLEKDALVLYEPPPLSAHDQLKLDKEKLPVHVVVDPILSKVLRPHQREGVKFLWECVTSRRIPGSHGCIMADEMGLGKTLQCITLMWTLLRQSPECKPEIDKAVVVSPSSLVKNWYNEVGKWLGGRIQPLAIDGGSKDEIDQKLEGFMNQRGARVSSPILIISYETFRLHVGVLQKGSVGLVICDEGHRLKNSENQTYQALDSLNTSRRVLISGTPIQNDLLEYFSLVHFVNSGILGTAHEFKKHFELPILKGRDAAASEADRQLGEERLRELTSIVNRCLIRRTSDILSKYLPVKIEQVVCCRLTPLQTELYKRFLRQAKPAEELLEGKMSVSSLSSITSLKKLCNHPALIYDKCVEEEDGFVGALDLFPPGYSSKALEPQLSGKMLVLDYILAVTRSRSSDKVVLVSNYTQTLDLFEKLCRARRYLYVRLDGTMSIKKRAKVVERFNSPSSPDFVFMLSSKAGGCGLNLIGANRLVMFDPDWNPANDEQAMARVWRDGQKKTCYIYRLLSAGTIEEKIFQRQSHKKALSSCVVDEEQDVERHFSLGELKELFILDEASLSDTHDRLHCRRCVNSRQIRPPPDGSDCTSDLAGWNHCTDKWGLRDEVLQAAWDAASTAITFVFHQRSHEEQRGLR

[25] = molecular target: Lysine-specific demethylase 4C (Homo sapiens, UniProt Q9H3R0); test: GASC-1 (JMJD2C) histone demethylase inhibitors, dose response, biochemical, DELFIA europium, cherry-picked samples (AID 488835); format: functional
Chain of Lysine-specific demethylase 4C (Q9H3R0 whole entry): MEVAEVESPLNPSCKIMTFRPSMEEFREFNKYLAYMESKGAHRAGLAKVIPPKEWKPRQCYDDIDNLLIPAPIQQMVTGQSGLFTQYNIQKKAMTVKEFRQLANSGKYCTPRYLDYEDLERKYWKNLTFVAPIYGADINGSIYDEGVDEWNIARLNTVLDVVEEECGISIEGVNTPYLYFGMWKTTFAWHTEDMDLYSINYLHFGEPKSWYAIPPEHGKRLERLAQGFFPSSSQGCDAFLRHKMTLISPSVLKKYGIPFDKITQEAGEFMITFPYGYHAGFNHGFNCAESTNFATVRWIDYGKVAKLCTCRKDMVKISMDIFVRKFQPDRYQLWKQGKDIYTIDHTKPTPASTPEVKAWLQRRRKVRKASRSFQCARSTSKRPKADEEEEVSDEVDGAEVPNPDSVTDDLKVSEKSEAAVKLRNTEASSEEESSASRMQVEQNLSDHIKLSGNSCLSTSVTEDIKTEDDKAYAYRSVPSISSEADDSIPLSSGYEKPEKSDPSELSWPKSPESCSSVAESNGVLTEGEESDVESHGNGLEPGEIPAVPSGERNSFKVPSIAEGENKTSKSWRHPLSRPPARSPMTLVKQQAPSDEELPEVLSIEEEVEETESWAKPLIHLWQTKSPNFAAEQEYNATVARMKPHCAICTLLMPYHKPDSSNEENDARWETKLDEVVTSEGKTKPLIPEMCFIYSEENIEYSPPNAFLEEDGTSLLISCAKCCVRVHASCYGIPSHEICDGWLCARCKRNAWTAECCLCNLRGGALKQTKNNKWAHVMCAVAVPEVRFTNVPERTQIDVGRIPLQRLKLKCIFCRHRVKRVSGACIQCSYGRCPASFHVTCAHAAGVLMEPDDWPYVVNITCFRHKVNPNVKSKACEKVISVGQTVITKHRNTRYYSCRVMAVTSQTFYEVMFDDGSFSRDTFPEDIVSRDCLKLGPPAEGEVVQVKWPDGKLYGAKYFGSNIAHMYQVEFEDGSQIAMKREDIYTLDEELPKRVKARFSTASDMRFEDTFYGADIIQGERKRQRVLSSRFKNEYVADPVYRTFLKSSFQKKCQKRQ

[26] = molecular target: T4, Tyrosine-protein phosphatase non-receptor type 7 (Homo sapiens, UniProt P35236); format: functional
T4 sequence (P35236 whole entry): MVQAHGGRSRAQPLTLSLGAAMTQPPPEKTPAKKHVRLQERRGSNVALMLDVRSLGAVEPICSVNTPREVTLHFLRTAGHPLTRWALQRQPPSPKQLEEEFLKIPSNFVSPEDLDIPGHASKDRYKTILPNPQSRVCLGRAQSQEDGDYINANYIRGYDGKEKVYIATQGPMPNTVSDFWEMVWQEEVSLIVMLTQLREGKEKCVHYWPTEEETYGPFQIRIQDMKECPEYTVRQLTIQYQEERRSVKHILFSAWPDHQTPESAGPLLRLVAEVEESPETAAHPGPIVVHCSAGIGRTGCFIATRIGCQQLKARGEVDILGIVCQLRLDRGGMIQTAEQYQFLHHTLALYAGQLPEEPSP

[27] = molecular target: T5, Tyrosine-protein phosphatase non-receptor type 22 (Homo sapiens, UniProt Q9Y2R2); format: functional
T5 sequence (Q9Y2R2 whole entry): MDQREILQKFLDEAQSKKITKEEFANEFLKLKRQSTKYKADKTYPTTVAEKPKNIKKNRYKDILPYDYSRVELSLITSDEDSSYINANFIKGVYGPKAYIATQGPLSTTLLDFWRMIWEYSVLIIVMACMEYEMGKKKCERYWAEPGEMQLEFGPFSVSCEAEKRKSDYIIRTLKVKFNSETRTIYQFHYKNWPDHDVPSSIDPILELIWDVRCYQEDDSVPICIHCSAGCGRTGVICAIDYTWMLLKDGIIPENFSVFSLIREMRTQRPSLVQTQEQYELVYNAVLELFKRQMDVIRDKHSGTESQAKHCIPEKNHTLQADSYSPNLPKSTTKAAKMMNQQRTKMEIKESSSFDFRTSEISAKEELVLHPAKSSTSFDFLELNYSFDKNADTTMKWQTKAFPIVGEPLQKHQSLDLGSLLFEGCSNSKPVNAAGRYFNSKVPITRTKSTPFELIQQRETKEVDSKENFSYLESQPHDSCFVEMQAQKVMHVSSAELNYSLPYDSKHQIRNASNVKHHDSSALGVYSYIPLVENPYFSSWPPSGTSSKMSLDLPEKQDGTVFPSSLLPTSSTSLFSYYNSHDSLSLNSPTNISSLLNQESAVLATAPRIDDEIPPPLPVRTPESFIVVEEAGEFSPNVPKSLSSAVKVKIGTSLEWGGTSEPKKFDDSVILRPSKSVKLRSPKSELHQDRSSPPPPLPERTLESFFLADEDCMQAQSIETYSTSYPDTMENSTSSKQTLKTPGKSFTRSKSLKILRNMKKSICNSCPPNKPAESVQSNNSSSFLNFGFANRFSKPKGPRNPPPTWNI

[28] = molecular target: T5, Tyrosine-protein phosphatase non-receptor type 22; format: functional; remark: listed apart in the source
[29] = molecular target: Intestinal-type alkaline phosphatase (Mus musculus, UniProt P24822); test: PubChem AID 488785; format: functional
[30] = molecular target: T6, Alkaline phosphatase, tissue-nonspecific isozyme (Homo sapiens, UniProt P05186); test: TNAP enzyme inhibition by screening hits, dose response, selectivity assay for mouse IAP inhibitor project, biochemical, human TNAP, uHTS hits (AID 488906); format: functional
T6 sequence (P05186 whole entry): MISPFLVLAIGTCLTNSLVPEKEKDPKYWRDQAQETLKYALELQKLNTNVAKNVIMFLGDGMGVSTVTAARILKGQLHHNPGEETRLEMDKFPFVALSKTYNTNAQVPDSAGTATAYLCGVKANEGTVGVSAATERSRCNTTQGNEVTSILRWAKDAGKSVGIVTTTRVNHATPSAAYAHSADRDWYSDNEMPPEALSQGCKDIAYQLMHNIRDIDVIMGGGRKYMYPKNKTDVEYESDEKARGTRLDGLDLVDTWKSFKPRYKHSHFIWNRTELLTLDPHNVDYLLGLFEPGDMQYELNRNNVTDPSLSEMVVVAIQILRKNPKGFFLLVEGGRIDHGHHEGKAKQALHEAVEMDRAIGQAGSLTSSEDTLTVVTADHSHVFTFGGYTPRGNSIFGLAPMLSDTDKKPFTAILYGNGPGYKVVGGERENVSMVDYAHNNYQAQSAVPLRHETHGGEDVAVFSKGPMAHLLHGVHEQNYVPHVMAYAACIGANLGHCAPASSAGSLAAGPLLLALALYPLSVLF

[31] = molecular target: Intestinal-type alkaline phosphatase (Homo sapiens, UniProt P09923); test: inhibition of human intestinal alkaline phosphatase – biochemical, dose response (AID 488876); format: functional
Chain of Intestinal-type alkaline phosphatase (Homo sapiens, UniProt P09923) (P09923 whole entry): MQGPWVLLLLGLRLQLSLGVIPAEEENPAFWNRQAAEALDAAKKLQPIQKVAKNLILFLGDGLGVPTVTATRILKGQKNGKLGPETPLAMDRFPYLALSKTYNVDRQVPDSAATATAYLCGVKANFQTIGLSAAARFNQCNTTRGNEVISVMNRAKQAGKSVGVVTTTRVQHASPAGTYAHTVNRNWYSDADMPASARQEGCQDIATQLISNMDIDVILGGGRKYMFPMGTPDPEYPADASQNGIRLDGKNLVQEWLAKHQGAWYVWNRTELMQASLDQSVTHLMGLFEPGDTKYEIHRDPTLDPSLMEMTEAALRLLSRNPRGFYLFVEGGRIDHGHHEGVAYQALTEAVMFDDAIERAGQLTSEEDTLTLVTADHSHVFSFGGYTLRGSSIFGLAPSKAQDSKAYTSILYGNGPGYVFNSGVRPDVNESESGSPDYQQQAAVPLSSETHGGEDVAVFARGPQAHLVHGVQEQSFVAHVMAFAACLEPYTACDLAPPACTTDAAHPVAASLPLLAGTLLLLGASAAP

[32] = growth induction of Burl-1 ts yeast mutant, dose response, counter-screen for SUMOylation pathway inhibitor project, whole organism, S. cerevisiae, luminescence (AID 463199); format: functional
[33] = system: BJ; test: cytotoxicity toward Ras-transformed BJeLR fibroblasts, dose response, cell-based, alamar blue fluorescence, cherrypicked samples (AID 2631); format: functional; conditions: Homo sapiens;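 also: confirmatory dose-response assay in RAS-dependent BJ fibroblasts engineered with TERT, LT and ST, with cytotoxicity read by fluorescence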
[34] = system: HEK293; test: cells; conditions: Homo sapiens
[35] = system: HEK293; test: cells; conditions: Homo sapiens; remark: listed apart in the source
[36] = molecular target: Cytochrome P450 2C19 (Homo sapiens, UniProt P33261); test: Cytochrome panel assay with activity outcomes. Panel member name: p450-cyp2c19 Compounds with AC50 equal or less than 10 uM are considered active; format: functional
[37] = molecular target: Cytochrome P450 2D6 (Homo sapiens, UniProt P10635);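 also: CYP2D6 member of a cytochrome P450 panel assay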
[38] = molecular target: T7, Cytochrome P450 1A2 (Homo sapiens, UniProt P05177);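 also: PubChem cytochrome P450 panel assay, CYP1A2 panel member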
T7 sequence (P05177 whole entry): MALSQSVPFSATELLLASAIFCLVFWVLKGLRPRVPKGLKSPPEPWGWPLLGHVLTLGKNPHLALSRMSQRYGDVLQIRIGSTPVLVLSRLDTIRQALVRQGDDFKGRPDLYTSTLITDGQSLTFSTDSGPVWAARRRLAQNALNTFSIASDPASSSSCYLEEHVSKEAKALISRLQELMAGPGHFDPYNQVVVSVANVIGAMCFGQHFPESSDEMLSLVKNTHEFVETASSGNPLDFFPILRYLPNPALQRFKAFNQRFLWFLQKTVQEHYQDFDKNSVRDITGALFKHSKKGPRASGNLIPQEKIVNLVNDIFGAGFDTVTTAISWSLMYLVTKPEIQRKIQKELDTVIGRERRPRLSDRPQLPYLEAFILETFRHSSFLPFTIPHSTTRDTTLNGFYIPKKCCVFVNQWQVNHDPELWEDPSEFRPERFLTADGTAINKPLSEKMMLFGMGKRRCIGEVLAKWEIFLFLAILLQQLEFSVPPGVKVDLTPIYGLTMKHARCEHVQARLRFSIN

[39] = molecular target: Cytochrome P450 3A4 (Homo sapiens, UniProt P08684);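 also: CYP3A4 tested as one member of a cytochrome P450 panel screen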
Chain of Cytochrome P450 3A4 (P08684 whole entry): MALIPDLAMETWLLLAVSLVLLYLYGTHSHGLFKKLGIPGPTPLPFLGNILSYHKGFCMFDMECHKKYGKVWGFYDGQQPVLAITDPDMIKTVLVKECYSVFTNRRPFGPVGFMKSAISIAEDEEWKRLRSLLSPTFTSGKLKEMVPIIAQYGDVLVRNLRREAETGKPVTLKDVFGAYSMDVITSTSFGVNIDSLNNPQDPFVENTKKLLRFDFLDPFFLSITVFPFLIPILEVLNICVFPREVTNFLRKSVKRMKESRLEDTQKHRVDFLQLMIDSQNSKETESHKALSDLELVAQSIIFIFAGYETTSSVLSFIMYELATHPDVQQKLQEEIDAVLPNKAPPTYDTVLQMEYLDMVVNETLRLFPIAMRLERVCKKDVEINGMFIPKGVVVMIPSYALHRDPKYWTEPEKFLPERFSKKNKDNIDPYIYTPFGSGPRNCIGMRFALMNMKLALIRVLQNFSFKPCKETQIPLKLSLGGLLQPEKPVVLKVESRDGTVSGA

[40] = molecular target: Cytochrome P450 2C9 (Homo sapiens, UniProt P11712)

## Cc1ccc(/N=c2\ssnc2Cl)c([N+](=O)[O-])c1
[1]
  IC50: 4.44 µM (active)
[2]
  IC50: 96.2 µM (active)

## COc1cc2ccccc2cc1C(=O)Nc1sc2c(c1C(N)=O)CCN(C(C)C)C2
[3]
  IC50: > 32 µM (inactive)
[4]
  EC50: > 120 µM (not active)
[5]
  EC50: > 32 µM (inactive)
[6]
  EC50: > 32 µM (inactive)
[7]
  EC50: 6.33 µM (active)
[8]
  EC50: > 120 µM (not active)
[9]
  EC50: > 120 µM (not active)
[10]
  EC50: 13.6 µM (active)
[11]
  EC50: 2 µM
[12]
  EC50: 14.8 µM
[13]
  EC50: 6.85 µM (inconclusive)
[14]
  EC50: 7.16 µM (active)
[15]
  CC50: 11.6 µM (active)
[16]
  CC50: 10.8 µM (active)
[17]
  CC50: 4.6 µM (active)
[18]
  IC50: 11.9 µM (active)
[19]
  AC50: 7.78 µM (active)
[20]
  IC50: 18.1 µM (active)
[21]
  IC50: > 100 µM (inactive)
[22]
  IC50: 15.1 µM (active)
[23]
  AC50: 16 µM (active)
[24]
  AC50: 9.33 µM (active)

## CCOC(=O)C1=CC(=C2C(=O)N(CC)C(=S)N(CC)C2=O)c2ccccc2O1
[25]
  AC50: 12.2 µM (active)

## Cc1cccnc1-n1c(C)nc2ccccc2c1=O
[26]
  IC50: > 79.4 µM (inactive)
[27]
  IC50: > 79.4 µM (inactive)
[28]
  IC50: > 79.4 µM (inactive)

## O=C(CCN1C(=O)/C(=C/c2ccco2)SC1=S)Nc1ccc(O)cc1C(=O)O
[29]
  IC50: 1.51 µM (active)
[30]
  IC50: 19.6 µM (active)
[31]
  IC50: > 100 µM (inactive)

## CC(C)c1cc(C(=O)N/N=C/C(Br)=C/c2ccccc2)[nH]n1
[7]
  EC50: 29.6 µM (active)
[10]
  EC50: 4.12 µM (active)
[13]
  EC50: > 150 µM (inconclusive)
[14]
  EC50: 5.12 µM (active)
[32]
  AC50: 137 µM (active)
[33]
  EC50: 22.2 µM (active)
[34]
  EC50: > 59.7 µM (inactive)
[35]
  EC50: > 59.7 µM (inactive)

## O=C(O)c1cc2ccccc2c(Cc2c(O)c(C(=O)O)cc3ccccc23)c1O [PAMOIC ACID]
[36]
  AC50: inactive
[37]
  AC50: inactive
[38]
  AC50: inactive
[39]
  AC50: inactive
[40]
  AC50: inactive
